# Source: patent US20080280837A1, “Biologically Active Compounds with Anti-Angiogenic Properties” (priority 2004, published 2008)
# Columns and labels:
# [1] = test system: PC-3 human prostate tumour xenograft; assay: Nude mouse model of human PC-3 prostate tumours; assay type: in vivo, nude mice; conditions: PC-3 xenograft
# Protocol: Initial Maximum Tolerated Dose (MTD) studies were done in male nude mice to determine the appropriate intravenous dosing regimen for the PC-3 human prostate tumour model. A range of doses between 0 and 50 mg/Kg for 28 days (qdx28) were tested. Mice were randomized into groups with 5 animals per group including vehicle control. Animals were weighed twice weekly starting on day one and observed daily for adverse reactions or toxicity due to the agent. MTD studies determined the selection of 20 mg/kg and 35 mg/kg for intravenous dosing once per day for 28 days in the PC-3 human prostate tumour xenograft model.
# Male nude mice (nu/nu) between 5 and 6 weeks of age weighing approximately 25 g were implanted subcutaneously (s.c) by trocar with fragments of PC-3 human tumour carcinomas harvested from s.c growing tumours in host mice. PC-3, is a metastatic human prostate adenocarcinoma cell line originating from a person. When tumours reached approximately 36 mm^3 in size animals were pair matched into treatment and control groups with 10 mice in each group. […]
# At the end of the treatment period the mice were weighed and sacrificed. Each tumour was excised and weighed and a mean actual tumour weight (mg) per group was calculated along with the mean actual volume ([…]). […] Mean tumour regression was determined using the formula [1−(mean actual tumour weightFINAL/mean tumour weightDAY 1)×100%].
# SSTR-2 = molecular target: T1, SSTR-2 (Homo sapiens, UniProt P30874); assay: Radioligand binding screen against somatostatin subtype SSTR-2
# T1 construct: expressed in transfected cells
# Protocol: Receptor membrane preparations containing the desired cloned receptor (for example cloned human somatostatin receptor subtype 5, SSTR5) and radio-labeled ligand (for example 3-[^125I]iodotyrosyl^11 Somatostatin-14)) were diluted at the concentration required for testing and according to the specific parameters associated with the selected receptor-ligand combination, including receptor Bmax, ligand Kd and any other parameters necessary to optimize the experimental conditions. When tested for competition activity to the reference ligand, “compound 1” was mixed with membrane suspension and the radiolabeled reference ligand (with or without an excess of cold ligand to the receptor for determination of non-specific binding) and incubated at the temperature required by internal standard operating procedures. Following incubation, the binding reaction was stopped by the addition of ice-cold washing buffer and filtered on appropriate filters, which are then counted. Data analysis and curve-fitting was performed with XLfit (IDBS).
# 10 mM solutions of test compounds in 100% DMSO were prepared. ˜160 μl was used for each dilution (20 μl/well in triplicate).
# A 1.25 mM assay stock was prepared by making a 1:8 dilution of the 10 mM solution. (To 30 μL of the 10 mM solution was added 210 μL milli-Q H2O. A 1:5 dilution series in milli-Q H2O was then prepared.
# In primary screening experiments compounds were tested in duplicate for a particular concentration.
# [2] = Human hepatocyte microsomal degradation half-life; assay type: in vitro ADME
# Protocol: the final concentration of ACN in the microsomal incubation was 1%,
# samples were incubated in a water bath at 37° C., and
# 45 μL aliquots were taken over 2 hr, quenched with ACN, placed on ice for 30 min to precipitate proteins and assayed by LC/MS/MS using either the Quattro Ultima Pt, LCT or Q-T of instruments.
# MCF—7 cell line = assay: Cell proliferation assay (CellTiter 96 AQueous One) as indicator of toxicity, MCF-7; assay type: cell-based; conditions: MCF—7, 100 μM
# Protocol: (§1) A simple cell proliferation assay was used to determine the in vitro cytotoxicity of “compound 1.” Selected cell lines were cultured according to their specific requirements. The optimal cell density required for each cell line was determined. All compounds were tested at a single concentration in triplicate. Cell viability was determined using the CellTiter 96® AQueous One reagent from Promega Corporation.
# (§2) Assays are performed by adding the test compound to the cells in culture and incubating the cells for a fixed period. The number of viable cells remaining after the incubation period is determined by adding a small amount of the CellTiter 96® AQueous One Solution Reagent directly to culture wells, incubating for 1-4 hours and then recording absorbance at 490 nm with a 96 well plate reader.
# (§3) Controls in the assay include untreated cells, wells without cells and cells treated with know cytotoxic agents. Data is presented as % inhibition of cell proliferation.
# [3] = In vivo pharmacokinetic evaluation after i.v. and p.o. administration to rats; conditions: rat, plasma, po, 25 mg/Kg, Rat 3, PO; calculated using AUC0-480; read-out: BA (oral bioavailability)
# Jurkat cell line = assay: Cell proliferation assay (CellTiter 96 AQueous One) as indicator of toxicity, Jurkat; assay type: cell-based; conditions: 100 μM
# Protocol: as §1, §2, §3
# [4] = test system: Human Umbilical Vein Endothelial Cells (HUVEC); assay: Endothelial cell proliferation assay (MTS); assay type: cell-based; conditions: 48 hrs
# Protocol: Human Umbilical Vein Endothelial Cells (HUVEC from Clonetics) were plated in 96 well plates at 1000 cell per well in EGM-2 medium (Clonetics). Cells were grown overnight at 37° C. in 5% CO2. Fresh EGM-2 medium containing compound at the desired concentration was added to the wells and the cells allowed to grow for a further 48 hrs. A MTS (Promega) colorimetric assay was performed after 48 hrs to determine cell growth according to the manufacturers instructions. Results are presented in terms of percentage growth.
# [5] = predicted from human microsomal degradation
# T1 sequence (P30874 whole entry): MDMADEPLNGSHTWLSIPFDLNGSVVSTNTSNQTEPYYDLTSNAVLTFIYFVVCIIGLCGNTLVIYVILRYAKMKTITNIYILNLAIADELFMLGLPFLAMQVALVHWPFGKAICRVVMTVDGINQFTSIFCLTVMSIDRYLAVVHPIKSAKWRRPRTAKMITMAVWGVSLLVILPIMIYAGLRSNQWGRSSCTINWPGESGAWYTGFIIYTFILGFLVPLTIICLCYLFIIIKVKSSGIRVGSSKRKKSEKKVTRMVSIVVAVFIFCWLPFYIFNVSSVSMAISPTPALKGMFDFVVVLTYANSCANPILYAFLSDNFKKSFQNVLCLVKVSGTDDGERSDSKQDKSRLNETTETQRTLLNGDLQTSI
compound,measurement,setting,value
COC[C@H]1O[C@H](OCCc2ccccc2)[C@H](NC(=O)CCCN)[C@@H](OCc2ccc3ccccc3c2)[C@@H]1O [Compound 1],Tumour growth inhibition (TGI),[1]; 20 mg/kg i.v. daily,34%
same,Tumour growth inhibition (TGI),[1]; 35 mg/kg i.v. daily,34%
same,IC50,"SSTR-2; concentration required to displace 50% of the competitive radioligand, read-out: IC50 SSTR2",7.5 µM
same,selectivity SSTR2,SSTR-2; normalized IC50: lowest IC50 for a compound = 1,23.2
same,Hillslope SSTR2,SSTR-2; slope of binding curve,1.2
same,CLint scaled,"[2]; human hepatocyte microsomes, pH 7.4, predicted from human microsomal degradation",3.73 L/h/kg
same,half-life,"[2]; human hepatocyte microsomes, human microsomal incubation, 37° C., pH 7.4, read-out: Degradation t1/2",32.2 min
same,Predicted CLblood,[2]; [5],0.93 L/h/kg
same,Predicted EH,[2]; [5],0.75
same,Inhibition of cell proliferation,MCF—7 cell line,no inhibitory effect
same,bioavailability,[3],4.95%
same,Inhibition of cell proliferation,Jurkat cell line,no inhibitory effect
same,Percent cell growth at 125 µM,[4]; 125 uM,69%
same,Percent cell growth at 250 µM,[4]; 250 uM,17%
